The text below walks through data of US20230293629A1, “METHODS FOR ATTENUATING RELEASE OF INFLAMMATORY MEDIATORS AND PEPTIDES USEFUL THEREIN” (BIOMARCK PHARMACEUTICALS LTD., priority 2006, published 2023).

One series deals with human neutrophils. The series can be described thus: PMA-stimulated MPO release from isolated human neutrophils (TMB assay). Type of series: cell-based. The settings on record: 100 μM test peptide, two hour incubation with 100 nM PMA; human neutrophils. From the text:
Human neutrophil isolation—These studies were approved by the human studies Institutional Review Board (IRB). Human neutrophils were isolated as previously described (see Takashi S, OkuboY, Horie S. Contribution of CD54 to human eosinophil and neutrophil superoxide production. J Appl Physiol 2001; 91:613-622) with slight modifications. Briefly, heparinized venous blood was obtained from normal healthy volunteers, diluted with RPMI-1640 (Cellgro; Mediatech, Inc., Herndon, VA) at a ratio of 1:1, layered onto a Histopaque (density, 1.077 g/ml; Sigma-Aldrich Co., St. Louis, MO) and centrifuged at 400 g for 20 min at 4° C. The supernatant and mononuclear cells at the interface were carefully removed, and erythrocytes in the sediment were lysed in chilled distilled water. Isolated granulocytes were washed twice with Hanks' balanced salts solution (HBSS) and resuspended in HBSS on ice.
Measurement of released neutrophil MPO activity—For measurement of MPO release, purified human neutrophils suspended in HBSS were aliquoted at 4×10^6 cells/ml in 15 ml tubes and preincubated with either 50 or 100 μM of MANS, RNS, or one of the peptides of invention for 10 min at 37° C. The cells then were stimulated with 100 nM phorbol 12-myristate 13-acetate (PMA) for up to 3 hrs. A control reference (PMA control reference) was established using purified human neutrophils suspended in HBSS aliquoted at 4×10^6 cells/ml in 15 mL tubes and stimulated with 100 nM phorbol 12-myristate 13-acetate (PMA) in the absence of a test peptide for the same time periods. The reaction was terminated by placing the tubes on ice and centrifugation at 400 g for 5 min at 4° C.
MPO activity in the cell supernatant was assayed using tetramethylbenzidine (TMB) based on a previously established technique (Abdel-Latif D, Steward M, Macdonald D L, Francis G A., Dinauer M C, Lacy P. Rac2 is critical for neutrophil primary granule exocytosis. Blood 2004; 104:832-839). Briefly, 100 μL of TMB substrate solution was added to 50 μL of cell supernatants or standard human MPO (EMD Biosciences, Inc., San Diego, CA) in a 96-well microplate followed by incubation at room temperature for 15 min. The reaction was terminated by addition of 50 μL of 1M […] and absorbance was read at 450 nm in a spectrophotometric microplate reader (VERSA max, Molecular Devices, Sunnyvale, CA).
The data presented in the table below represents 100 μM concentration of test peptides and a two hour incubation with 100 nM PMA.

For another series, the system named is U937 cells. As to the kind of experiment: PMA-stimulated lysozyme secretion by U937 cells. Type of series: cell-based, human. The settings on record: 50 μM test peptide, two hour incubation with 100 nM PMA; U937 cells. The protocol:
(§1) Three types of human leukocyte cell lines, specifically the promyelocytic cell line HL-60 clone 15, the monocytic cell line U937, and the lymphocyte natural killer cell line NK-92 were purchased from American Type Culture Collection (ATCC; Rockville, MD). HL-60 clone 15 cells (ATCC CRL-1964) were maintained in medium consisting of RPMI 1640 with L-glutamine supplemented with 10% heat-inactivated fetal bovine serum (Gibco; Invitrogen Co., Carlsbad, CA), 50 IU/ml penicillin, 50 μg/mL streptomycin, and 25 mM HEPES buffer, pH 7.8, at 37° C. in an atmosphere containing 5% CO2. Final differentiation to an eosinophil-like phenotype was initiated by culturing cells at 5×10^5 cells/ml in the above medium containing 0.5 mM butyric acid (Sigma-Aldrich Co.) for 5 days as previously described (Tiffany H L, Li F, Rosenberg H F. Hyperglycosylation of eosinophil ribonucleases in a promyelocytic leukemia cell line and in differentiated peripheral blood progenitor cells. J Leukoc Biol 1995; 58:49-54; Tiffany H L, Alkhatib G, Combadiere C, Berger E A, Murphy P M. CC chemokine receptors 1 and 3 are differentially regulated by IL-5 during maturation of eosinophilic HL-60 cells. J Immunol 1998; 160:1385-1392). U937 cells (ATCC CRL-1593.2) were grown at 37° C. in an atmosphere of 5% CO2 in complete medium consisting of RPMI 1640 with L-glutamine supplemented with 10% FBS, 50 IU/ml penicillin, and 50 μg/mL streptomycin. NK-92 cells (ATCC CRL-2407) were maintained in alpha-MEM medium (Sigma-Aldrich Co.) supplemented with 20% FBS, 100 U/ml of interleukin-2 (IL-2) (Chemicon International, Inc., Temecula, CA), 5×10^−5 M of 2-mercaptoethanol, 50 IU/mL penicillin, and 50 μg/ml streptomycin at 37° C. in an atmosphere containing 5% CO2. Cell morphology was judged by assessment of Wright-Giemsa-stained cells. Viability of cells harvested for experiments was assessed by trypan blue exclusion and populations of cells with viability >95% were used.
(§2) HL-60 clone 15, U937, and NK-92 cells were washed and resuspended at 2.5×10^6 cells/ml in phenol red-free RPMI-1640 (Cellgro; Mediatech, Inc.) for all degranulation assays. Aliquots of cells in 15 ml tubes were preincubated with indicated concentrations of MANS, RNS, or a test peptide for 10 min at 37° C. The cells then were stimulated with PMA for up to 2 hr. A control reference (PMA control reference) was established for each cell type using HL-60 clone 15, U937, and NK-92 cells, respectively, which were washed and resuspended at 2.5×10^6 cells/ml in phenol red-free RPMI-1640 and stimulated with PMA but in the absence of MANS, RNS, or a test peptide for the same time periods. The reaction was terminated by placing tubes on ice and centrifuging cells at 400 g for 5 min at 4° C.
(§3) For measurements of released MPO from neutrophils and released lysozyme from U937 cells, we were able to quantify secretion by using as standards human MPO and egg white […], respectively. For released EPO from HL-60 clone 15 cells and for released granzyme from NK-92 cells, no standards were available to use for quantification. […] To measure intracellular EPO in HL-60 clone 15 cells and intracellular granzyme in NK-92 cells, appropriate aliquots of 0.1% triton X-100-lysed cells were taken for quantification of intracellular granule proteins as described below. All treatments were expressed as percentage of control to minimize variability between cultures.
Lysozyme secreted by U937 cells was measured using a spectrophotometric assay as described previously (Balboa M A, Saez Y, Balsinde J. Calcium-independent phospholipase A2 is required for lysozyme secretion in U937 promonocytes. J Immunol 2003; 170:5276-5280) with slight modification. Thus, 100 μL of sample was mixed with 100 μL of a Micrococcus lysodeikticus (Sigma-Aldrich Co.) suspension (0.3 mg/ml in 0.1 M sodium phosphate buffer, pH 7.0) in a 96-well microplate. The decrease in absorbance at 450 nm was measured at room temperature. […]

The next series concerns HL-60 clone 15 cells. As to the kind of experiment: PMA-stimulated EPO release from HL-60 clone 15 cells. Format: cell-based, human. The settings on record: 50 μM test peptide, two hour incubation with 100 nM PMA; HL-60 clone 15 cells. As for the experimental part:
as §1, §2, §3
EPO activity released by HL-60 clone 15 cells was assayed using TMB according to a previously established technique (Lacy P, Mahmudi-Azer S, Bablitz B, Hagen S C, Velazquez J R, Man S F, Moqbel R. Rapid mobilization of intracellularly stored RANTES in response to interferon-gamma in human eosinophils. Blood 1999; 94:23-32). Thus, 100 μL of TMB substrate solution was added to 50 μL=microliters) of sample in a 96-well microplate and incubated at room temperature for 15 min (min=minutes). […]

The nature of series [1]: Qualitative solubility of peptides in 0.5 N saline, pH 6.5.
The test system of a further series is NHBE cells. The series can be described thus: Mucin secretion from NHBE cells, ELISA. Type of series: cell-based, human. The settings on record: FIG. 3; NHBE cells preincubated 15 min; okadaic acid 500 nM, fostriecin indicated concentrations. As for the experimental part: It is believed that PKG acts to dephosphorylate MARCKS via activation of a protein phosphatase. […] NHBE cells were preincubated with the indicated concentration of fostriecin, okadaic acid (500 nM), or medium alone for 15 min and then stimulated with PMA (100 nM)+8-Br-cGMP (1 μM) for 15 min or with UTP (100 μM) for 2 h. Secreted mucin was measured by ELISA. […] Thus, dephosphorylation of MARCKS by a PKG-activated PP2A appears to be an essential component of the signaling pathway leading to mucin granule exocytosis.
MARCKS-related Peptides—Both the myristoylated N-terminal sequence (MANS) and the random N-terminal sequence (RNS) peptides were synthesized at Genemed Synthesis, Inc. (San Francisco, Calif.), then purified by high pressure liquid chromatography (>95% pure), and confirmed by mass spectroscopy with each showing one single peak with an appropriate molecular mass. The MANS peptide consisted of sequence identical to the first 24 amino acids of MARCKS, i.e. the myristoylated N-terminal region that mediates MARCKS insertion into membranes, MA-[…] […]
(In general: In an ELISA, binding on a coated surface is turned into a signal by an enzyme label.)

The test system of series [2] is MARCKS phosphorylation in NHBE cells. The series can be described thus: MARCKS phosphorylation in NHBE cells, radiolabeled immunoprecipitation assay. Format: cell-based, human. As for the experimental part:
Radiolabeled Immunoprecipitation Assay—When labeling with [^32P]phosphate, cells were preincubated for 2 h in phosphate-free Dulbecco's modified Eagle's medium containing 0.2% bovine serum albumin and then labeled with 0.1 mCi/ml [^32P]orthophosphate (9000 Ci/mmol, PerkinElmer Life Sciences) for 2 h. For labeling with [^3H]myristic acid or 3H-amino acids, cells were incubated overnight in medium containing 50 μCi/ml [^3H]myristic acid (49 Ci/mmol, PerkinElmer Life Sciences) or 0.2 mCi/ml [^3H]leucine (159 Ci/mmol, PerkinElmer Life Sciences) plus 0.4 mCi/ml [^3H]proline (100 Ci/mmol, PerkinElmer Life Sciences). Following labeling, cells were exposed to stimulatory reagents for 5 min. When an inhibitor was used, cells were preincubated with the inhibitor for 15 min prior to stimulation. At the end of the treatments, cells were lysed in a buffer containing 50 mM Tris-HCl (pH 7.5), 150 mM NaCl, 1 mM EDTA, 10% glycerol, 1% Nonidet P-40, 1 mM phenylmethylsulfonyl fluoride, 1 mM benzamidine, 10 μg/ml pepstatin A, and 10 μg/ml leupeptin. Trichloroacetic acid precipitation and scintillation counting may determine the radiolabeling efficiency in each culture. Immunoprecipitation of MARCKS protein was carried out according to the method of Spizz and Blackshear using cell lysates containing equal counts/min. Spizz et al., J. Biol. Chem. 271, 553-562 (1996). Precipitated proteins were resolved by 8% SDS-polyacrylamide gel electrophoresis and visualized by autoradiography. Anti-human MARCKS antibody (2F12) and nonimmune control antibody (6F6) were used in this assay.
To assess MARCKS or MARCKS-associated protein complexes in different subcellular fractions, radiolabeled and treated cells were scraped into a homogenization buffer (50 mM Tris-HCl (pH 7.5), 10 mM NaCl, 1 mM EDTA, 1 mM phenylmethylsulfonyl fluoride, 1 mM benzamidine, 10 μg/ml pepstatin A, 10 μg/ml leupeptin) and then disrupted by nitrogen cavitation (800 pounds/square inch for 20 min at 4° C.). Cell lysates were centrifuged at 600×g for 10 min at 4° C. to remove nuclei and unbroken cells. Post-nuclear supernatants were separated into membrane and cytosol fractions by ultracentrifugation at 400,000×g for 30 min at 4° C. The membrane pellet was solubilized in the lysis buffer by sonication. Immunoprecipitation was then carried out as described above.

The next series addresses PP2A (Homo sapiens, UniProt P67775). The settings on record: inhibitor of PP2A; cited from earlier work.

Where a SMILES comes first, the peptide text is derived from it. The star is where a group is joined. Myristoyl = CCCCCCCCCCCCCC(=O)* A value given as a limit tells only on which side of the number the result lay.

Chain of PP2A (P67775 whole entry): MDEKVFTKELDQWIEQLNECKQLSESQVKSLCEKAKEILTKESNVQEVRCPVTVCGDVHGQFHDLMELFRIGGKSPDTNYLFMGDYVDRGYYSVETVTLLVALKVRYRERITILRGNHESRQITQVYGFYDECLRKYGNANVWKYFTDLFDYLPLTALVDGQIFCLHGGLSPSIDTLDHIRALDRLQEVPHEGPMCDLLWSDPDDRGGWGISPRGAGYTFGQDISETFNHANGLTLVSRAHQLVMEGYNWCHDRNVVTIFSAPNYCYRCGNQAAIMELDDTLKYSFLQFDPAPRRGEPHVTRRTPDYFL

In general, solubility refers to how much of the substance goes into solution per volume. Low readings indicate a poorly soluble substance, high ones a readily soluble substance. Regarding `CCCCCCCCCCCCCC(=O)NCC(=O)N[C@@H](C)C(=O)N[C@@H](CCC(N)=O)C(=O)N[C@@H](Cc1ccccc1)C(=O)N[C@@H](CO)C(=O)N[C@@H](CCCCN)C(=O)N[C@H](C(=O)N[C@@H](C)C(=O)N[C@@H](C)C(=O)N[C@@H](CCCCN)C(=O)NCC(=O)N[C@@H](CCC(=O)O)C(=O)O)[C@@H](C)O` [MA-GAQFSKTAAKGE, GAQFSKTAAKGE] (Myristoyl-GAQFSKTAAKGE-OH; C-terminus assumed), the “% Inhibition MPO” value with human neutrophils was 43.2%. The “% Inhibition Lysozyme” value with U937 cells stood at 85.2%. Besides, the “% Inhibition EPO” value with HL-60 clone 15 cells turned out to be 25.2%. The solubility in series [1] is over 2 mg/mL.

The term IC50 denotes the concentration at which inhibition is half-maximal. `C[C@@](O)(/C=C/[C@H]1CC=CC(=O)O1)[C@@H](C[C@@H](O)\C=C/C=C\C=C\CO)OP(=O)(O)O` [fostriecin]: the “mucin secretion induced by PMA+8-Br-cGMP or UTP” value with NHBE cells is “attenuated mucin secretion”. In series [2] (fostriecin 1-500 nM), the “effect on PKG-induced MARCKS dephosphorylation” value was “inhibited PKG-induced MARCKS dephosphorylation in a concentration-dependent manner”. Also, the IC50 on PP2A was 3.2 nM.

As for `C=C1[C@@H](O)[C@@H]2O[C@]3(CC[C@H](/C=C/[C@@H](C)[C@@H]4CC(C)=C[C@@]5(O[C@H](C[C@@](C)(O)C(=O)O)CC[C@H]5O)O4)O3)CC[C@H]2O[C@@H]1[C@@H](O)C[C@H](C)[C@H]1O[C@@]2(CCCCO2)CC[C@H]1C` [okadaic acid], the “mucin secretion induced by PMA+8-Br-cGMP or UTP” value with NHBE cells is listed as “attenuated mucin secretion”. For the same compound, in series [2] (500 nM okadaic acid), the “effect on PKG-induced MARCKS dephosphorylation” value was “blocked”.

Consider “Ac-GAQFSKTAAKGE-NH2 [Ac-GAQFSKTAAKGE-NH2, GAQFSKTAAKGE]”, for which, in the series on human neutrophils, the “% Inhibition MPO” value is reported as 26.5%. Moreover, in the series on U937 cells, the “% Inhibition Lysozyme” value came out at 38.6%. In addition, the “% Inhibition EPO” value with HL-60 clone 15 cells turned out to be 24.7%. The same compound gave a solubility in series [1] of over 60 mg/mL.

As to calphostin C, the “effect on PMA-induced MARCKS phosphorylation” value in series [2] (500 nM calphostin C + 100 nM PMA) is reported as “attenuated”.
